Drawing on the supplement of paper PMC10307832, this text covers relative viability for nine cell lines.

Holding throughout (assay): relative viability (nuclei count vs DMSO), 5 days (fraction); higher = more cells survive
Compound in the test “Everolimus + Trametinib”: CO[C@H]1C[C@@H]2CC[C@@H](C)[C@@](O)(O2)C(=O)C(=O)N2CCCC[C@H]2C(=O)O[C@H]([C@H](C)C[C@@H]2CC[C@@H](OCCO)[C@H](OC)C2)CC(=O)[C@H](C)/C=C(\C)[C@@H](O)[C@@H](OC)C(=O)[C@H](C)C[C@H](C)/C=C/C=C/C=C/1C [Everolimus] + CC(=O)Nc1cccc(-n2c(=O)n(C3CC3)c(=O)c3c(Nc4ccc(I)cc4F)n(C)c(=O)c(C)c32)c1 [Trametinib] (partner 0.02 µM)
Put shortly: (§1)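 For relative viability, nuclei counts in treated wells were divided by those in vehicle wells. Lung cancer cell lines had been pin-tool dosed in 1536-well plates the day after seeding and cultured for 5 days, then fixed and stained in one step (final 0.05% Triton X-100, 1% formaldehyde, 1 ug/ml Hoechst) and imaged at 4×. Doses were one drug alone or a fixed anchor-drug dose plus five library-drug doses (not always all listed) in √10 steps, and values are duplicate-plate medians.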

Compound in the test “Everolimus + Navitoclax”: CO[C@H]1C[C@@H]2CC[C@@H](C)[C@@](O)(O2)C(=O)C(=O)N2CCCC[C@H]2C(=O)O[C@H]([C@H](C)C[C@@H]2CC[C@@H](OCCO)[C@H](OC)C2)CC(=O)[C@H](C)/C=C(\C)[C@@H](O)[C@@H](OC)C(=O)[C@H](C)C[C@H](C)/C=C/C=C/C=C/1C [Everolimus] + CC1(C)CCC(c2ccc(Cl)cc2)=C(CN2CCN(c3ccc(C(=O)NS(=O)(=O)c4ccc(N[C@H](CCN5CCOCC5)CSc5ccccc5)c(S(=O)(=O)C(F)(F)F)c4)cc3)CC2)C1 [Navitoclax] (partner 0.5 µM)
Put shortly: as §1

Compound in the test “Everolimus + Pemetrexed”: CO[C@H]1C[C@@H]2CC[C@@H](C)[C@@](O)(O2)C(=O)C(=O)N2CCCC[C@H]2C(=O)O[C@H]([C@H](C)C[C@@H]2CC[C@@H](OCCO)[C@H](OC)C2)CC(=O)[C@H](C)/C=C(\C)[C@@H](O)[C@@H](OC)C(=O)[C@H](C)C[C@H](C)/C=C/C=C/C=C/1C [Everolimus] + Nc1nc2[nH]cc(CCc3ccc(C(=O)N[C@@H](CCC(=O)O)C(=O)O)cc3)c2c(=O)[nH]1 [Pemetrexed] (partner 0.2 µM)
Put shortly: as §1

Compound in the test “Everolimus + Phenformin”: CO[C@H]1C[C@@H]2CC[C@@H](C)[C@@](O)(O2)C(=O)C(=O)N2CCCC[C@H]2C(=O)O[C@H]([C@H](C)C[C@@H]2CC[C@@H](OCCO)[C@H](OC)C2)CC(=O)[C@H](C)/C=C(\C)[C@@H](O)[C@@H](OC)C(=O)[C@H](C)C[C@H](C)/C=C/C=C/C=C/1C [Everolimus] + N=C(N)NC(=N)NCCc1ccccc1 [Phenformin] (partner 250 µM)
In a few lines: as §1

Consider NCI-H2085, for which the relative viability worked out at 0.313 in the test with Everolimus + Trametinib (first compound 0.01 µM); 0.329 with Everolimus + Trametinib (first compound 0.03162 µM); 0.299 with Everolimus + Trametinib (first compound 0.1 µM); 0.264 with Everolimus + Trametinib (first compound 0.3162 µM); 0.297 in the test with Everolimus + Trametinib (first compound 1 µM); 0.73 with Everolimus + Navitoclax (first compound 0.01 µM). For the same cell line, the relative viability came to 0.811 with Everolimus + Navitoclax (first compound 0.03162 µM); 0.66 in the test with Everolimus + Navitoclax (first compound 0.1 µM); 0.83 with Everolimus + Navitoclax (first compound 0.3162 µM); 0.705 in the test with Everolimus + Navitoclax (first compound 1 µM); 0.655 in the test with Everolimus + Pemetrexed (first compound 0.01 µM); 0.652 with Everolimus + Pemetrexed (first compound 0.03162 µM). Besides, the relative viability is 0.493 with Everolimus + Pemetrexed (first compound 0.1 µM); 0.624 in the test with Everolimus + Pemetrexed (first compound 0.3162 µM); 0.63 with Everolimus + Pemetrexed (first compound 1 µM); 0.573 with Everolimus + Phenformin (first compound 0.01 µM); 0.559 in the test with Everolimus + Phenformin (first compound 0.03162 µM); 0.395 with Everolimus + Phenformin (first compound 0.1 µM). The relative viability came out at 0.503 with Everolimus + Phenformin (first compound 0.3162 µM) and 0.521 with Everolimus + Phenformin (first compound 1 µM).
For NCI-H1395, the relative viability with Everolimus + Trametinib (first compound 0.01 µM) turned out to be 0.724; with Everolimus + Trametinib (first compound 0.03162 µM) it was 0.641; with Everolimus + Trametinib (first compound 0.1 µM), 0.657; in the test with Everolimus + Trametinib (first compound 0.3162 µM), 0.694; with Everolimus + Trametinib (first compound 1 µM), 0.652; with Everolimus + Navitoclax (first compound 0.01 µM), 1.06. The relative viability was 0.886 with Everolimus + Navitoclax (first compound 0.03162 µM); 0.857 with Everolimus + Navitoclax (first compound 0.1 µM); 0.83 with Everolimus + Navitoclax (first compound 0.3162 µM); 0.763 in the test with Everolimus + Navitoclax (first compound 1 µM); 0.595 in the test with Everolimus + Pemetrexed (first compound 0.01 µM); 0.571 with Everolimus + Pemetrexed (first compound 0.03162 µM). Also, the relative viability with Everolimus + Pemetrexed (first compound 0.1 µM) turned out to be 0.693; with Everolimus + Pemetrexed (first compound 0.3162 µM) it was 0.693; in the test with Everolimus + Pemetrexed (first compound 1 µM), 0.7; with Everolimus + Phenformin (first compound 0.01 µM), 0.386; with Everolimus + Phenformin (first compound 0.03162 µM), 0.398; with Everolimus + Phenformin (first compound 0.1 µM) it was 0.425. In addition, the relative viability turned out to be 0.401 in the test with Everolimus + Phenformin (first compound 0.3162 µM) and 0.371 with Everolimus + Phenformin (first compound 1 µM).
Consider SW 900, for which the relative viability with Everolimus + Trametinib (first compound 0.01 µM) worked out at 0.604; in the test with Everolimus + Trametinib (first compound 0.03162 µM) it was 0.733; with Everolimus + Trametinib (first compound 0.1 µM), 0.536; with Everolimus + Trametinib (first compound 0.3162 µM) it was 0.717; in the test with Everolimus + Trametinib (first compound 1 µM) it was 0.432; with Everolimus + Pemetrexed (first compound 0.01 µM) it was 0.391. Moreover, the relative viability with Everolimus + Pemetrexed (first compound 0.03162 µM) worked out at 0.432; with Everolimus + Pemetrexed (first compound 0.1 µM), 0.482; with Everolimus + Pemetrexed (first compound 0.3162 µM) it was 0.431; in the test with Everolimus + Pemetrexed (first compound 1 µM) it was 0.421; with Everolimus + Phenformin (first compound 0.01 µM) it was 0.43; with Everolimus + Phenformin (first compound 0.03162 µM), 0.492. In addition, the relative viability stood at 0.371 in the test with Everolimus + Phenformin (first compound 0.1 µM), 0.324 with Everolimus + Phenformin (first compound 0.3162 µM) and 0.45 with Everolimus + Phenformin (first compound 1 µM).
In the case of NCI-H460, the relative viability is 0.082 with Everolimus + Trametinib (first compound 0.01 µM); 0.101 with Everolimus + Trametinib (first compound 0.03162 µM); 0.114 in the test with Everolimus + Trametinib (first compound 0.1 µM); 0.0573 with Everolimus + Trametinib (first compound 0.3162 µM); 0.124 with Everolimus + Trametinib (first compound 1 µM); 0.998 with Everolimus + Navitoclax (first compound 0.01 µM). Besides, the relative viability with Everolimus + Navitoclax (first compound 0.03162 µM) is 1.11; with Everolimus + Navitoclax (first compound 0.1 µM), 0.704; with Everolimus + Navitoclax (first compound 0.3162 µM), 1.1; with Everolimus + Navitoclax (first compound 1 µM), 0.779; with Everolimus + Pemetrexed (first compound 0.01 µM), 0.058; with Everolimus + Pemetrexed (first compound 0.03162 µM), 0.0669. The relative viability turned out to be 0.0635 with Everolimus + Pemetrexed (first compound 0.1 µM); 0.0608 with Everolimus + Pemetrexed (first compound 0.3162 µM); 0.072 in the test with Everolimus + Pemetrexed (first compound 1 µM); 0.492 in the test with Everolimus + Phenformin (first compound 0.01 µM); 0.57 in the test with Everolimus + Phenformin (first compound 0.03162 µM); 0.588 with Everolimus + Phenformin (first compound 0.1 µM). Further, the results for the relative viability in the test with Everolimus + Phenformin (first compound 0.3162 µM) and in the test with Everolimus + Phenformin (first compound 1 µM) were 0.538 and 0.315, respectively.
Regarding A549, the relative viability in the test with Everolimus + Navitoclax (first compound 0.01 µM) was 0.64; in the test with Everolimus + Navitoclax (first compound 0.03162 µM) it was 0.455; with Everolimus + Navitoclax (first compound 0.1 µM) it was 0.452; with Everolimus + Navitoclax (first compound 0.3162 µM), 0.474; with Everolimus + Navitoclax (first compound 1 µM), 0.458; with Everolimus + Phenformin (first compound 0.01 µM), 0.164. Also, the relative viability in the test with Everolimus + Phenformin (first compound 0.03162 µM) was found to be 0.122; with Everolimus + Phenformin (first compound 0.1 µM), 0.154; with Everolimus + Phenformin (first compound 0.3162 µM) it was 0.0954; with Everolimus + Phenformin (first compound 1 µM) it was 0.157.
As for IA-LM, the relative viability in the test with Everolimus + Navitoclax (first compound 0.01 µM) amounted to 0.314; with Everolimus + Navitoclax (first compound 0.03162 µM), 0.317; with Everolimus + Navitoclax (first compound 0.1 µM), 0.395; with Everolimus + Navitoclax (first compound 0.3162 µM), 0.389; with Everolimus + Navitoclax (first compound 1 µM), 0.302.
EKVX: the relative viability was 0.294 with Everolimus + Trametinib (first compound 0.03162 µM); 0.257 with Everolimus + Trametinib (first compound 0.1 µM); 0.268 with Everolimus + Trametinib (first compound 0.3162 µM); 0.382 in the test with Everolimus + Trametinib (first compound 1 µM); 0.542 with Everolimus + Navitoclax (first compound 0.01 µM); 0.75 in the test with Everolimus + Navitoclax (first compound 0.03162 µM). Besides, the relative viability in the test with Everolimus + Navitoclax (first compound 0.1 µM) was determined as 0.505; with Everolimus + Navitoclax (first compound 0.3162 µM) it was 0.514; with Everolimus + Navitoclax (first compound 1 µM), 0.654; in the test with Everolimus + Pemetrexed (first compound 0.03162 µM), 0.378; in the test with Everolimus + Pemetrexed (first compound 0.1 µM), 0.371; in the test with Everolimus + Pemetrexed (first compound 0.3162 µM), 0.345. Further, the relative viability was determined as 0.389 with Everolimus + Pemetrexed (first compound 1 µM); 0.242 in the test with Everolimus + Phenformin (first compound 0.01 µM); 0.22 with Everolimus + Phenformin (first compound 0.03162 µM); 0.22 with Everolimus + Phenformin (first compound 0.1 µM); 0.222 with Everolimus + Phenformin (first compound 0.3162 µM); 0.25 with Everolimus + Phenformin (first compound 1 µM).
Turning to ChaGo-K-1, the relative viability with Everolimus + Trametinib (first compound 0.01 µM) turned out to be 0.647; with Everolimus + Trametinib (first compound 0.03162 µM), 0.795; with Everolimus + Trametinib (first compound 0.1 µM) it was 0.729; with Everolimus + Trametinib (first compound 0.3162 µM), 0.751; with Everolimus + Trametinib (first compound 1 µM), 0.796; with Everolimus + Navitoclax (first compound 0.01 µM), 1.01. Also, the relative viability with Everolimus + Navitoclax (first compound 0.03162 µM) was found to be 0.558; in the test with Everolimus + Navitoclax (first compound 0.1 µM), 0.951; with Everolimus + Navitoclax (first compound 0.3162 µM), 0.837; with Everolimus + Navitoclax (first compound 1 µM) it was 1.01; with Everolimus + Pemetrexed (first compound 0.01 µM), 0.247; with Everolimus + Pemetrexed (first compound 0.03162 µM), 0.265. Moreover, the relative viability in the test with Everolimus + Pemetrexed (first compound 0.1 µM) came out at 0.26; with Everolimus + Pemetrexed (first compound 0.3162 µM) it was 0.244; with Everolimus + Pemetrexed (first compound 1 µM), 0.249; with Everolimus + Phenformin (first compound 0.01 µM), 0.532; in the test with Everolimus + Phenformin (first compound 0.03162 µM), 0.467; with Everolimus + Phenformin (first compound 0.1 µM), 0.394. The values for the relative viability with Everolimus + Phenformin (first compound 0.3162 µM) and with Everolimus + Phenformin (first compound 1 µM) were 0.536 and 0.568, respectively.
As to NCI-H522, the relative viability amounted to 0.634 with Everolimus + Trametinib (first compound 0.01 µM); 0.55 with Everolimus + Trametinib (first compound 0.03162 µM); 0.527 with Everolimus + Trametinib (first compound 0.1 µM); 0.456 with Everolimus + Trametinib (first compound 0.3162 µM); 0.635 with Everolimus + Trametinib (first compound 1 µM); 0.735 in the test with Everolimus + Pemetrexed (first compound 0.01 µM). Further, the relative viability came to 0.79 in the test with Everolimus + Pemetrexed (first compound 0.03162 µM); 0.521 with Everolimus + Pemetrexed (first compound 0.1 µM); 0.548 with Everolimus + Pemetrexed (first compound 0.3162 µM); 0.732 with Everolimus + Pemetrexed (first compound 1 µM); 0.588 with Everolimus + Phenformin (first compound 0.01 µM); 0.527 with Everolimus + Phenformin (first compound 0.03162 µM). In addition, the figures for the relative viability in the test with Everolimus + Phenformin (first compound 0.1 µM), in the test with Everolimus + Phenformin (first compound 0.3162 µM) and with Everolimus + Phenformin (first compound 1 µM) were 0.549, 0.51 and 0.503, respectively.
